Test results published in PMC12165799, “Antimicrobial peptide developed with machine learning sequence optimization targets drug resistant Staphylococcus aureus in mice” (The Journal of Clinical Investigation, 2025).
In brackets after ≈: the same amount, converted by molar mass. Where two headings read alike, the source gives them in different places.

How the values were obtained:
S. aureus MW2 = assay: Minimal inhibitory concentration (MIC) assay, broth microdilution; format: cell-based, Staphylococcus aureus; settings: Staphylococcus aureus
Experimental: 300 Synthesis of peptides
302 Piscataway, NJ, USA).
305 Minimal inhibitory concentration (MIC) assay
We made serial dilutions of 10×
We determined the MIC using OD600
Accordingly, we added 150 mM NaCl,
319 established protocol (5).

[1] = tested on: MRSA (S. aureus MW2) biofilm; assay: Biofilm viability assay on solid support (MW2); format: cell-based, Staphylococcus aureus; settings: S. aureus MW2, 10 μg/ml, 24 h in PBS
[2] = tested on: VRSA (S. aureus VRS1) biofilm; assay: Biofilm viability assay on solid support (VRS1); format: cell-based, Staphylococcus aureus; settings: S. aureus VRS1, 10 μg/ml, 24 h in PBS
[3] = tested on: S. aureus MW2 24 h established biofilm; settings: 24 h treatment
Experimental: 346 plated onto TSA plates, and incubated plates at 37°C overnight. The next day, we counted the
347 viable bacterial colonies.
We used TSB medium containing
356 bacteria with water as the positive control, while TSB media with sterile water served as the
357 negative control. After incubation, we carefully removed the TSB medium and washed the wells
358 with PBS (Gibco, MD, USA) to remove loosely attached planktonic cells. We quantified the
359 biomass by staining the biofilms with crystal violet following an established protocol and
360 quantitated the concentration of peptide that inhibits 50% of biofilm formation (MBIC50)(8). We
361 measured the live cell count of the biofilms using XTT dye [2,3-bis(2-methyloxy-4-nitro-5-
362 sulfophenyl)-2H-tertazolium-5-carboxanilide] (ATCC, VA, USA). We calculated the percentage
363 of biofilm growth by normalizing to biofilm growth in wells containing bacteria without peptide
366 Disruption of S. aureus MW2 established biofilms
367 We evaluated the ability of the citropin 1.1-derived peptides to disrupt established biofilms
368 following an established protocol with modifications (5). We prepared exponential cultures of S.
369 aureus MW2 (adjusted to 1 × 10^6 CFU/ml) in TSB medium (supplemented with 0.2% glucose)
370 from overnight grown cultures. We added 100 µl of bacterial culture to flat-bottomed 96-well
371 polystyrene microtiter plates (Cat no. 3595, Corning, NY, USA). We then incubated the plates at
372 37°C for 24 hours in static conditions to allow biofilm formation. After incubation, we carefully
373 pipetted out the TSB medium and washed the wells with PBS (Gibco, MD, USA) to remove
374 loosely attached planktonic cells. We treated the established biofilms in each well with 10 µl of
375 serially diluted 10× peptide solution, followed by the addition of 90 μl TSB medium
376 (supplemented with 0.2% glucose). We incubated the plates for another 24 h at 37°C before
377 processing biomass and live-cell contents. We calculated the concentration of peptide that disrupts
378 50% of established biofilms (MBEC50).

S. aureus MW2 membrane = assay: Propidium iodide-based membrane permeability; format: cell-based, Staphylococcus aureus; settings: S. aureus MW2, 60 minutes
Experimental: 484 min at room temperature in the dark based on a previously established protocol (8). We added 90
485 µl of the dye/bacteria mixture to 10 μl of serially diluted 10× peptide concentration in black, 96-
486 well plates (Cat. no. 3904, Corning, NY, USA) and incubated the plates for 1 hour at room
487 temperature. We measured the fluorescence with excitation and emission wavelengths of 485 nm
488 and 525 nm, respectively in endpoint assay mode using a SpectraMax i3x (Molecular Devices,
489 CA, USA) fluorescence reader.
490 Propidium iodide-based membrane permeability
491 We used a propidium iodide (Thermo Fisher Scientific, MA, USA) fluorescence-based
492 bacterial permeation assay to establish membrane-oriented interactions with the designed peptides
493 based on a previously established protocol (8). We prepared exponential phase S. aureus MW2
494 bacteria and diluted to OD600 = 0.4 in PBS. We added PI dye (final concentration = 2 µM) to the
495 bacteria in 1:10 serial dilutions in black, 96-well plates (Cat. no. 3904, Corning, NY, USA) and
496 incubated the plates for 1 hour at room temperature. We then measured the fluorescence with an
497 excitation wavelength of 584 nm and an emission wavelength of 620 nm in endpoint assay mode
498 using a SpectraMax i3x (Molecular Devices, CA, USA) fluorescence reader.
501 To determine the ATP leakage potential of the peptides, we employed a luciferase-based
502 assay(18). In brief, we washed exponential phase of S. aureus MW2 bacteria three times with PBS
503 (pH 7.4) and adjusted the washed cells to OD600 = 0.4 in PBS. Following treatment of the bacteria
504 with 32 µg/ml of CIT-8 peptide at 37°C for 30 min, we centrifuged the cells at 14,000× g for 5
505 min. We transferred 50 µl of each supernatant fraction to black, clear-bottom, 96-well plates

CN[C@H](CC(C)C)C(=O)N[C@H]1C(=O)N[C@@H](CC(N)=O)C(=O)N[C@H]2C(=O)N[C@H]3C(=O)N[C@H](C(=O)N[C@H](C(=O)O)c4cc(O)cc(O)c4-c4cc3ccc4O)[C@H](O)c3ccc(c(Cl)c3)Oc3cc2cc(c3O[C@@H]2O[C@H](CO)[C@@H](O)[C@H](O)[C@H]2O[C@H]2C[C@](C)(N)[C@H](O)[C@H](C)O2)Oc2ccc(cc2Cl)[C@H]1O [Vancomycin, reference compound]
MIC (S. aureus MW2; MW2, 18 h, read-out: MIC SA): ≤ 0.125 µg/mL | MIC (S. aureus MW2; read-out: MIC + MgSO4 (1 mM), S. aureus MW2, TSB + 1 mM MgSO4): ≤ 1 µg/mL | MIC (S. aureus MW2; read-out: MIC + human serum (10%), S. aureus MW2, TSB + 10% human serum): ≤ 1 µg/mL | MIC (S. aureus MW2; S. aureus MW2, TSB + 8 μM ZnSO4, read-out: MIC + ZnSO4 (8 μM)): ≤ 1 µg/mL | MIC (S. aureus MW2; S. aureus MW2, TSB + 2.5 mM CaCl2, read-out: MIC + CaCl2 (2.5 mM)): ≤ 1 µg/mL | MIC (S. aureus MW2; S. aureus MW2, TSB + 150 mM NaCl, read-out: MIC + NaCl (150 mM)): ≤ 1 µg/mL | MIC (S. aureus MW2; S. aureus MW2, TSB + 5% human serum, read-out: MIC + human serum (5%)): ≤ 1 µg/mL | MIC (S. aureus MW2; S. aureus MW2, TSB, read-out: MIC, Medium only): 1 µg/mL (≈ 0.69 µM) | Bacterial load of 24 hour established biofilm on solid membrane ([1]; replicate 1): 160000000 | Bacterial load of 24 hour established biofilm on solid membrane ([1]; replicate 2): 18000000 | Bacterial load of 24 hour established biofilm on solid membrane ([1]; replicate 3): 28000000 | Bacterial load of 24 hour established biofilm on solid membrane ([1]; replicate 4): 40000000 | Bacterial load of 24 hour established biofilm on solid membrane ([1]; replicate 5): 20000000 | Bacterial load of 24 hour established biofilm on solid membrane ([1]; replicate 6): 60000000 | Bacterial load of 24 hour established biofilm on solid membrane ([2]; replicate 1): 40000000 | Bacterial load of 24 hour established biofilm on solid membrane ([2]; replicate 2): 40000000 | Bacterial load of 24 hour established biofilm on solid membrane ([2]; replicate 3): 60000000 | Bacterial load of 24 hour established biofilm on solid membrane ([2]; replicate 4): 60000000 | Bacterial load of 24 hour established biofilm on solid membrane ([2]; replicate 5): 20000000 | Bacterial load of 24 hour established biofilm on solid membrane ([2]; replicate 6): 20000000 | Established biofilm, biomass (crystal violet), percentage of untreated ([3]; 4 μg/ml, replicate 1): 149.693 | Established biofilm, live-cell viability (XTT), percentage of untreated ([3]; 4 μg/ml, replicate 1): 100.129 | Established biofilm, biomass (crystal violet), percentage of untreated ([3]; 4 μg/ml, replicate 2): 84.8543 | Established biofilm, live-cell viability (XTT), percentage of untreated ([3]; 4 μg/ml, replicate 2): 106.559 | Established biofilm, biomass (crystal violet), percentage of untreated ([3]; 4 μg/ml, replicate 3): 49.5143 | Established biofilm, live-cell viability (XTT), percentage of untreated ([3]; 4 μg/ml, replicate 3): 106.192 | Established biofilm, biomass (crystal violet), percentage of untreated ([3]; 8 μg/ml, replicate 1): 88.3691 | Established biofilm, live-cell viability (XTT), percentage of untreated ([3]; 8 μg/ml, replicate 1): 102.865 | Established biofilm, live-cell viability (XTT), percentage of untreated ([3]; 8 μg/ml, replicate 2): 105.547 | Established biofilm, biomass (crystal violet), percentage of untreated ([3]; 8 μg/ml, replicate 3): 88.3308 | Established biofilm, live-cell viability (XTT), percentage of untreated ([3]; 8 μg/ml, replicate 3): 106.722 | Established biofilm, biomass (crystal violet), percentage of untreated ([3]; 16 μg/ml, replicate 1): 138.471 | Established biofilm, live-cell viability (XTT), percentage of untreated ([3]; 16 μg/ml, replicate 1): 64.3129 | Established biofilm, biomass (crystal violet), percentage of untreated ([3]; 16 μg/ml, replicate 2): 273.773 | Established biofilm, live-cell viability (XTT), percentage of untreated ([3]; 16 μg/ml, replicate 2): 78.7072 | Established biofilm, biomass (crystal violet), percentage of untreated ([3]; 16 μg/ml, replicate 3): 273.774 | Established biofilm, live-cell viability (XTT), percentage of untreated ([3]; 16 μg/ml, replicate 3): 47.5625 | Established biofilm, biomass (crystal violet), percentage of untreated ([3]; 32 μg/ml, replicate 1): 98.1851 | Established biofilm, live-cell viability (XTT), percentage of untreated ([3]; 32 μg/ml, replicate 1): 0.7061 | Established biofilm, biomass (crystal violet), percentage of untreated ([3]; 32 μg/ml, replicate 2): 78.1697 | Established biofilm, live-cell viability (XTT), percentage of untreated ([3]; 32 μg/ml, replicate 2): 1.691 | Established biofilm, biomass (crystal violet), percentage of untreated ([3]; 32 μg/ml, replicate 3): 90.9509 | Established biofilm, live-cell viability (XTT), percentage of untreated ([3]; 32 μg/ml, replicate 3): 6.084 | Propidium iodide fluorescence (membrane permeation) (S. aureus MW2 membrane): did not induce fluorescence
